# Source: patent publication US6060608A, “Analogs of CC-1065 and the duocarmycins” (The Scripps Research Institute, priority 1999, dated 2000)
# Tests used:
# [1] = in vivo; cited from earlier work
# [2] = test system: DNA; details: cited from earlier work
# [3] = test system: w794 DNA, 5'-AATTA high affinity site; assay: Relative rate of DNA alkylation at the w794 5'-AATTA high affinity site; format: biochemical, SV40; details: 25° C.; for relative rate of DNA alkylation, TMI series: 10^-6 M
# Experimental: Rate of DNA Alkylation. The relative rates of DNA alkylation for the natural enantiommers of CCBI-TMI (35) and CCBI-indole2 (37) versus those of the corresponding CBI and MCBI agents were measured at the single high affinity site in w794, 5'-AATTA. The relative rates earlier studies of DNA alkylation for MCBI-TMI, CBI-TMI, and duocarmycin SA were determined to be quite similar at 4° C., 1.8:1.0:0.9, respectively. […] In prior studies, we have highlighted similar observations with agents that span a much larger range of relative reactivities.
# The DNA alkylation selectivity and efficiency of the natural enantiomers of 304-307 were compared with that of 1 in w794 DNA. […] These trends in the overall efficiency of DNA alkylation parallel the relative trends in cytotoxic potency.
# (§1) DNA Alkylation Relative Rate of (+)-CCBI-TMI (35), (+)-CBI-TMI, and (+)-MCBI-TMI. Following the procedure detailed above, Eppendorf tubes containing 5' end-labeled w794 DNA (9 μL) in TE buffer (pH 7.5) were treated with (+)-CCBI-TMI (35), (+)-CBI-TMI, or (+)-MCBI-TMI (1 μL, 10^-6 M in DMSO). The solutions were mixed and incubated at 25° C. for 2, 4, 6, 9, 12, 15, and 24 h, respectively. Subsequent isolation of the alkylated DNA by EtOH precipitation, resuspension in TE buffer (10 μL, pH 7.5), thermolysis (30 min, 100° C.), PAGE, and autoradiography were conducted as detailed above. Relative rates for alkylation at the w794 high-affinity 5'-AATTA site were derived from the slopes of the plots of percent integrated optical density (IOD) of the high-affinity alkylation cleavage bands versus time.
# as §1, with “(+)-CCBI-indole2 (37), (+)-CBI-indole2,” for “(+)-CCBI-TMI (35), (+)-CBI-TMI,”, “(+)-MCBI-indole2.” for “(+)-MCBI-TMI.”, “(+)-CCBI-indole2 (37), (+)-CBI-indole2, and (+)-MCBI-indole2” for “(+)-CCBI-TMI (35), (+)-CBI-TMI, or (+)-MCBI-TMI”
# [4] = cited from earlier work
# [5] = cited from earlier work; remark: listed apart in the source
# [6] = test system: calf thymus DNA; assay: DNA alkylation of calf thymus DNA, recovery of unreacted agent; format: biochemical; details: 37° C., 48-72 h, 1:51 agent:base-pair ratio
# Experimental: DNA Alkylation of Calf Thymus DNA. An aliquot of agent (5 μL, 0.01 M in DMSO) was added to a calf thymus DNA solution (0.45 mL, 3.79 mg/mL, 10 mM sodium phosphate, pH 7.0, base-pair:agent=51:1). The DNA-agent mixtures were incubated at 37° C. for 72 h for both enantiomers of 105, 106 and 107 or at 37° C. for 48 h for 108, 109, 110 and 111. For both enantiomers of 105, 106, 108 and 110, the unreacted materials were extracted with EtOAc (0.5 mL×4). The combined extracts were dried and dissolved in EtOAc (0.9 mL) and the quantities of 105, 106, 108, and 110 were determined by UV. Additional extraction with EtOAc (0.5 mL×4) was carried out, and the amounts of combined material were determined by UV. No additional material was recovered. For the ionic agents 107, 109 and 111, the unreacted materials were recovered from the supernatants of EtOH precipitation of the DNA. The EtOH in the supernatant was removed by a stream of N2. The supernatants were diluted to 0.9 mL with H2 O and the recovered quantities of 107, 109, and 111 were determined by UV.
# These studies were conducted alongside control reactions conducted in the absence of DNA. An aliquot of agent (5 μL, 0.01 M in DMSO) was added to sodium phosphate buffer (0.45 mL, 10 mM, pH 7.0). The agent-buffer mixtures were incubated at 37° C. for 72 h for both enantiomers of 105, 106 and 107 or at 37° C. for 48 h for 108, 109, 110 and 111. For 105, 106, 108 and 110, the materials were extracted with EtOAc (0.5 mL×4). The combined extracts were dried and dissolved in EtOAc (0.9 mL) and the agent quantities were determined by UV. For the ionic agents 107, 109 and 111, the agent-buffer mixtures were diluted to 0.9 mL with H2 O and their quantities were determined by UV.
# [7] = test system: L1210; assay: In vitro cytotoxic activity, L1210; details: L1210
# [8] = test system: w794 DNA, 5'-AATTA high affinity site; details: 4° C., earlier studies, 1.8:1.0:0.9; cited from earlier work
# [9] = test system: w794 duplex DNA; details: unnatural enantiomers; prior comparison; cited from earlier work
# [10] = test system: w794 duplex DNA; assay: DNA alkylation selectivity and efficiency within w794 DNA, thermally-induced strand cleavage and PAGE; format: biochemical, SV40
# How it was run: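 5′-32P end-labeled w794 duplex DNA in TE buffer (pH 7.2–7.5) incubated with agent in DMSO across concentrations, 4–37 °C for 24–76 h depending on agent. Unbound agent removed by EtOH precipitation; thermolysis 100 °C, 30 min cleaves alkylation sites, mapped by denaturing 8% PAGE beside Sanger standards and autoradiography.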
# [11] = In vitro cytotoxic activity (cell line not given); format: cell-based
# [12] = test system: w794 DNA, 5'-AATTA high affinity site; assay: Relative rate of DNA alkylation at the w794 5'-AATTA high affinity site; format: biochemical, SV40; details: 10^-5 M, 25° C., 1-72 h
# [13] = test system: DNA; details: cited from earlier work; remark: listed apart in the source
structure (smiles),measurement,setting,value
"COc1c(O)c2c(c3cc(C(=O)N4CCc5c4c(O)c(OC)c4[nH]c(C(=O)N6CC7CC78C6=CC(=O)c6[nH]cc(C)c68)cc54)[nH]c13)CCN2C(N)=O (single isomer, unassigned; (+)) [(+)-CC-1065]",delayed toxicity,[1],delayed fatal toxicity
"COc1c(O)c2c(c3cc(C(=O)N4CCc5c4c(O)c(OC)c4[nH]c(C(=O)N6CC7CC78C6=CC(=O)c6[nH]cc(C)c68)cc54)[nH]c13)CCN2C(N)=O (single isomer, unassigned) [ent-(-)-CC-1065]",delayed toxicity,[1],has not been observed
Cc1c(N)nc([C@H](CC(N)=O)NC[C@H](N)C(N)=O)nc1C(=O)N[C@H](C(=O)N[C@H](C)[C@@H](O)[C@H](C)C(=O)N[C@H](C(=O)NCCc1nc(-c2nc(C(=O)NCCC[S+](C)C)cs2)cs1)[C@@H](C)O)[C@@H](O[C@@H]1O[C@@H](CO)[C@@H](O)[C@H](O)[C@@H]1O[C@H]1O[C@H](CO)[C@@H](O)[C@H](OC(N)=O)[C@@H]1O)c1c[nH]cn1.[Br-] [compound 104],apparent binding site size,[2],3.8 base-pairs
same,Kd,"[2]; dna, read-out: apparent DNA binding constant Kapp",10 µM
"O=C(Nc1ccc2[nH]c(C(=O)N3CC4CC45C3=CC(=O)c3ccccc35)cc2c1)c1cc2ccccc2[nH]1 (single isomer, unassigned) [CBI-indole2]","relative rate of DNA alkylation, indole2 series",[3],1.0 ×
same,in vivo antitumor activity,[4],potent and efficacious In vivo antitumor activity
same,delayed toxicity,[1],lacked the delayed fatal toxicity
same,"cytotoxic potency greater than (+)-CPI-indole2 (U71,184)",[5],4 ×
"CSCCCNC(=O)c1csc(-c2csc(CCNC(=O)C(=O)N3CC(CCl)c4c3cc(O)c3ccccc43)n2)n1 (stereo not shown) [compound 105, 3-[2'-(2-(2-(1-Chloromethyl-5-hydroxy-1,2-dihydro-3H-benz[e]indol-3-yl)-1,2-dioxoethyl)aminoethyl)-2,4'-bithiazole-4-carboxamido]propyl Methyl Sulfide]",DNA alkylation of calf thymus DNA,[6],recovered nearly quantitatively
same,cytotoxic potency in comparison with CBI building block or simple CBI derivatives,[7],approached the cytotoxic potency of 114
"COc1ccc2c(c1)C13CC1CN(C(=O)c1cc4cc(OC)c(OC)c(OC)c4[nH]1)C3=CC2=O (single isomer, unassigned) [MCBI-TMI]","relative rate of DNA alkylation, TMI series",[3],1.9 ×
same,relative rate of DNA alkylation,[8],1.8
"COc1cc2cc(C(=O)N3CC4CC45C3=CC(=O)c3ccccc35)[nH]c2c(OC)c1OC (single isomer, unassigned; (-)) [(-)-CBI-TMI]",distinction in DNA alkylation efficiency from ent-(-)-duocarmycin SA,[9],10 ×
"COC(=O)c1cc2c([nH]1)C(=O)C=C1N(C(=O)c3cc4cc(OC)ccc4[nH]3)CC3CC123 (single isomer, unassigned) [compound 305]","DNA alkylation properties, comparison in words",[10],essentially indistinguishable from 1 itself
same,properties relative to duocarmycin SA or 304,[11],indistinguishable
same,cytotoxic activity relative to duocarmycin SA or 304 (words),[11]; listed as (+)-305,indistinguishable from duocarmycin SA
same,"krel, faster than 304",[12],18-33
COC(=O)c1cc2c([nH]1)C(=O)C=C1N(C(=O)c3cc4cc(OC)c(OC)c(OC)c4[nH]3)CC3CC123 (stereo not shown) [duocarmycin SA],"DNA alkylation properties, comparison in words",[10],exhibited the same selectivity and efficiency of DNA alkylation
same,concentration of detectable alkylation of high affinity site 5'-AATTA,"[10]; 25° C., 24 h",10^-6 to 10^-7 M
same,"relative rate of DNA alkylation, TMI series",[3],0.9 ×
same,properties relative to duocarmycin SA or 304,[11],indistinguishable
same,relative rate of DNA alkylation,[8],0.9
same,"krel, 1 relative to 305",[12],1.3-2.3
same,"krel, faster than 304",[12],18-33
same,adenine N3 adduct quantitated,[13],95-100%
"COc1cc2cc(C(=O)N3CC4CC45C3=CC(=O)c3ccccc35)[nH]c2c(OC)c1OC (single isomer, unassigned) [CBI-TMI]","relative rate of DNA alkylation, TMI series",[3],1.0 ×
same,relative rate of DNA alkylation,[8],1.0
COC(=O)[C@]1(C)NC2=C(C1=O)[C@@]13C[C@@H]1CN(C(=O)c1cc4cc(OC)c(OC)c(OC)c4[nH]1)C3=CC2=O [duocarmycin A],adenine N3 adduct quantitated,[13],86-92%
